This passage reports GI50 and TGI results from PubChem BioAssay (NCI).

Some test systems named below: OVCAR-5 ovarian; OVCAR-4 ovarian; CAKI-1 renal; HCT-116 colon; SK-OV-3 ovarian; A549 NSCLC; UO-31 renal; NCI/ADR-RES ovarian.
Common to all, as to test: inhibition of tumour cell growth, NCI panel, 48 h

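Exposure lasted 48 hours, with cells grown in 96-well plates and compounds tested at five concentrations. GI50 marks 50% less growth. TGI: concentration producing complete growth inhibition.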

On to `O=C(/C(Br)=C/c1ccccc1)c1ccccc1`, for which the GI50 is 3.21 µM in the test on OVCAR-5 ovarian; 3.79 µM in the test on OVCAR-4 ovarian; 1.34 µM with CAKI-1 renal; 1.64 µM with HCT-116 colon; 16 µM with SK-OV-3 ovarian; 14.2 µM in the test on A549 NSCLC. The GI50 in the test with UO-31 renal was 1.36 µM; with NCI/ADR-RES ovarian, 2.24 µM. The TGI stood at 9.22 µM with OVCAR-5 ovarian; 16.9 µM in the test on OVCAR-4 ovarian; 3.39 µM in the test on CAKI-1 renal; 3.12 µM in the test on HCT-116 colon; 34.6 µM in the test with SK-OV-3 ovarian; 28.5 µM in the test on A549 NSCLC. Further, the TGI in the test on UO-31 renal amounted to 3.35 µM; with NCI/ADR-RES ovarian, 6.48 µM.

With `CC(C)c1nc(CN(C)C(=O)N[C@H](C(=O)N[C@@H](Cc2ccccc2)C[C@H](O)[C@H](Cc2ccccc2)NC(=O)OCc2cncs2)C(C)C)cs1`, the GI50 in the test on OVCAR-5 ovarian is 28.2 µM; with OVCAR-4 ovarian, 27.2 µM; in the test with CAKI-1 renal it was 31.3 µM; with HCT-116 colon it was 19.9 µM; with SK-OV-3 ovarian, 35.8 µM; with A549 NSCLC it was 23 µM. For the same compound, the GI50 with UO-31 renal is 24.5 µM; in the test on NCI/ADR-RES ovarian it was 37.9 µM. Also, the TGI in the test with OVCAR-5 ovarian is 71.5 µM; in the test on OVCAR-4 ovarian it was over 92.1 µM; in the test on CAKI-1 renal, 68.2 µM; with HCT-116 colon, 50.1 µM; with SK-OV-3 ovarian, over 100 µM; in the test on A549 NSCLC, 65.5 µM. The TGI in the test with UO-31 renal was over 83.8 µM; in the test with NCI/ADR-RES ovarian it was over 100 µM.

On to `C=C1C(=O)O[C@H]2[C@H]1CC/C(Cn1cc(-c3ccc(OC)cc3)nn1)=C\CC[C@@]1(C)O[C@@H]21`, for which the GI50 in the test on OVCAR-5 ovarian was 1.71 µM; with OVCAR-4 ovarian it was 1.52 µM; in the test on CAKI-1 renal, 1.03 µM; in the test on HCT-116 colon, 0.488 µM; in the test on SK-OV-3 ovarian, 16.3 µM; in the test with A549 NSCLC, 10.9 µM. Moreover, the GI50 in the test with UO-31 renal is 1.27 µM; in the test with NCI/ADR-RES ovarian, 3.08 µM. Moreover, the TGI in the test with OVCAR-5 ovarian is 3.66 µM; with OVCAR-4 ovarian, 3.33 µM; with CAKI-1 renal, 3.63 µM; in the test with HCT-116 colon it was 1.79 µM; in the test on SK-OV-3 ovarian, 29.9 µM; with A549 NSCLC it was 24.4 µM. Besides, the TGI in the test with UO-31 renal worked out at 2.64 µM; in the test on NCI/ADR-RES ovarian, 12.4 µM.

In the case of `Cc1ccc(NC(=O)c2cccc(N(C)C)c2)cc1NC(=O)c1ccc(O)cc1`, the GI50 with OVCAR-5 ovarian was over 82.4 µM; in the test with OVCAR-4 ovarian, 38.6 µM; with CAKI-1 renal, 52.8 µM; with HCT-116 colon, over 59.4 µM; in the test on SK-OV-3 ovarian, 65.7 µM; in the test with A549 NSCLC it was 61.4 µM. In addition, the GI50 was over 73.4 µM in the test with UO-31 renal and over 72 µM in the test on NCI/ADR-RES ovarian. Besides, the TGI with OVCAR-5 ovarian, in the test with OVCAR-4 ovarian, in the test with CAKI-1 renal, in the test with HCT-116 colon, in the test with SK-OV-3 ovarian and in the test on A549 NSCLC was over 100 µM in each case. Also, the TGI in the test on UO-31 renal and in the test on NCI/ADR-RES ovarian was over 100 µM in each case.

As to `CC1(C)OC2[C@@H](CNC(=O)NC(=O)NC(=O)CI)O[C@@H](n3cnc4c(NC(=O)Nc5ccccc5)ncnc43)[C@H]2O1` (some centres not stated), the GI50 with OVCAR-5 ovarian is 8.74 µM; with OVCAR-4 ovarian it was 7.16 µM; in the test on CAKI-1 renal, 0.79 µM; in the test with HCT-116 colon, 10.7 µM; in the test on SK-OV-3 ovarian, 22.2 µM; in the test with A549 NSCLC it was over 50 µM. Moreover, the GI50 in the test on UO-31 renal is 1.34 µM; in the test on NCI/ADR-RES ovarian it was 16.4 µM. For the same compound, the TGI in the test with OVCAR-5 ovarian was 18 µM; in the test on OVCAR-4 ovarian, 21 µM; in the test on CAKI-1 renal, 1.56 µM; in the test on HCT-116 colon, 25.4 µM; in the test with SK-OV-3 ovarian, over 50 µM; with A549 NSCLC, over 50 µM. The figures for the TGI in the test with UO-31 renal and with NCI/ADR-RES ovarian were 4.27 µM and over 50 µM, respectively.

For the compound `CC[C@]1(O)C[C@@H]2CN(CCc3c([nH]c4ccccc34)[C@@](C(=O)OC)(c3cc4c(cc3OC)N(C)[C@H]3[C@@](O)(C(=O)OC)[C@H](OC(C)=O)[C@]5(CC)C=CCN6CC[C@]43[C@@H]65)C2)C1`, the GI50 with OVCAR-5 ovarian is under 0.01 µM; in the test with CAKI-1 renal, under 0.01 µM; in the test on HCT-116 colon, under 0.01 µM; in the test on A549 NSCLC it was under 0.01 µM; in the test on UO-31 renal, 0.175 µM; in the test with NCI/ADR-RES ovarian, under 0.0445 µM. Moreover, the TGI was 87.7 µM in the test on OVCAR-5 ovarian; over 100 µM in the test on OVCAR-4 ovarian; 4.65 µM in the test with CAKI-1 renal; 15 µM in the test on HCT-116 colon; 45 µM in the test with SK-OV-3 ovarian; over 100 µM in the test on A549 NSCLC. Moreover, the TGI with UO-31 renal worked out at 19.1 µM; in the test on NCI/ADR-RES ovarian, 2.68 µM.

`CC/C(=C(/c1ccc(O)cc1)c1ccc(OCCNC)cc1)c1ccccc1`: the GI50 in the test with OVCAR-5 ovarian was 2.37 µM; in the test on OVCAR-4 ovarian, 3.32 µM; with CAKI-1 renal it was 2.75 µM; in the test with HCT-116 colon, 1.68 µM; in the test on SK-OV-3 ovarian it was 3.45 µM; in the test on A549 NSCLC, 1.89 µM. Further, the GI50 with UO-31 renal was 1.86 µM; in the test with NCI/ADR-RES ovarian, 2.32 µM. Besides, the TGI with OVCAR-5 ovarian is 6.25 µM; with OVCAR-4 ovarian it was 15.4 µM; in the test on CAKI-1 renal, 8.58 µM; with HCT-116 colon it was 3.12 µM; in the test with SK-OV-3 ovarian, 12 µM; with A549 NSCLC, 3.95 µM. The TGI was 4.8 µM with UO-31 renal and 5.85 µM in the test with NCI/ADR-RES ovarian.

Consider `C=CC(=O)N1CC2(CCN(c3nc(OC4CCN(CCCOC)CC4)nc4c(OCC(F)(F)F)c(-c5c(C)ccc6[nH]ncc56)c(C5CC5)cc34)CC2)C1`, for which the GI50 with OVCAR-5 ovarian was 5.31 µM; in the test with OVCAR-4 ovarian, 4.54 µM; in the test with CAKI-1 renal, 4.15 µM; in the test on HCT-116 colon it was 1.95 µM; with SK-OV-3 ovarian it was 8.57 µM; in the test with A549 NSCLC it was 3.45 µM. The figures for the GI50 in the test with UO-31 renal and in the test on NCI/ADR-RES ovarian were 1.7 µM and 14.8 µM, respectively. Further, the TGI with OVCAR-5 ovarian is 18 µM; with OVCAR-4 ovarian, 18.5 µM; in the test with CAKI-1 renal, 15.2 µM; with HCT-116 colon it was 4.17 µM; in the test with SK-OV-3 ovarian, 23.8 µM; in the test on A549 NSCLC, 17.6 µM. The TGI in the test with UO-31 renal is 3.13 µM; in the test on NCI/ADR-RES ovarian it was 36.6 µM.

As for `COC(=O)[C@]12CC[C@@H](C)[C@H](C)[C@@H]1C1=CC[C@@H]3[C@@]4(C)C/C(=N\O)[C@H](O)[C@@]5(C)COC(=C45)C[C@@]3(C)[C@]1(C)CC2`, the GI50 in the test on OVCAR-5 ovarian was 15.9 µM; in the test on OVCAR-4 ovarian, 4.46 µM; in the test with CAKI-1 renal it was 11.2 µM; in the test with HCT-116 colon, 2.42 µM; in the test on SK-OV-3 ovarian it was 16.6 µM; in the test with A549 NSCLC, 10.4 µM. Besides, the GI50 with UO-31 renal is 12.3 µM; with NCI/ADR-RES ovarian it was 2.61 µM. The TGI stood at 33.6 µM in the test on OVCAR-5 ovarian; 18.6 µM with OVCAR-4 ovarian; 24.7 µM in the test with CAKI-1 renal; 7.11 µM in the test on HCT-116 colon; 30.5 µM with SK-OV-3 ovarian; 24.4 µM in the test with A549 NSCLC. In addition, the TGI is 29.2 µM in the test with UO-31 renal and 7.88 µM with NCI/ADR-RES ovarian.
